Laboratory results: patent US9833497B2, “Human originated EGF domain proteins and use of the same” (CHENGDU SOURCEBIO LIMITED-LIABILITY COMPANY, priority 2013, dated 2017)

How the values were obtained:
Type in all cases: cell-based
Klebsiella pneumonia = test: MIC against Gram-negative bacteria: Klebsiella pneumonia
Outline: (§1)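 LB broth cultures at McFarland 0.5, spun down, resuspended, diluted to 5×10^5 CFU/mL final. Two-fold serial dilutions of purified human EGF domain proteins, triplicate. 37° C, 175 rpm shaking. Endpoint: no visible growth.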

E. coli DH5α = test: Antibacterial activity: MIC and growth curve against E. coli DH5α in 96-well plate; conditions: minimal inhibitory concentration against E. coli DH5α; 96-well plate, 5×10^5 CFU/mL, 37° C., judged after 8 h
Outline: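 Log-phase bacteria (OD600 ~0.5) resuspended in LB at 5×10^5 CFU/mL, exposed to recombinant protein at 50, 25, 12.5 μg/mL final in triplicate, 37 °C shaking at 175 rpm. OD600 read every 30 min; MIC is lowest concentration showing no growth.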

Aeromonas hydrophila = test: MIC against Gram-negative bacteria: Aeromonas hydrophila
Outline: as §1

E. coli BL21 = test: MIC against Gram-negative bacteria: E. coli BL21
Outline: as §1

Citrobacter diversus = test: MIC against Gram-negative bacteria: Citrobacter diversus
Outline: as §1

Moraxella catarrhalis = test: MIC against Gram-negative bacteria: Moraxella catarrhalis
Outline: as §1

Proteus mirabilis = test: MIC against Gram-negative bacteria: Proteus mirabilis
Outline: as §1

Pseudomonas aeruginosa = test: MIC against Gram-negative bacteria: Pseudomonas aeruginosa
Outline: as §1

Serratia marcescens = test: MIC against Gram-negative bacteria: Serratia marcescens
Outline: as §1

Enterobacter cloacae = test: MIC against Gram-negative bacteria: Enterobacter cloacae
Outline: as §1

Proteus vulgaris = test: MIC against Gram-negative bacteria: Proteus vulgaris
Outline: as §1

[1] = K. pneumonia, 10 h cultivation at 37° C., 5×10^5 CFU/mL
[2] = A. hydrophila, 10 h cultivation at 37° C., 5×10^5 CFU/mL
[3] = E. coli BL21, 10 h cultivation at 37° C., 5×10^5 CFU/mL
[4] = C. diversus, 10 h cultivation at 37° C., 5×10^5 CFU/mL
[5] = M. catarrhalis, 10 h cultivation at 37° C., 5×10^5 CFU/mL
[6] = P. mirabilis, 10 h cultivation at 37° C., 5×10^5 CFU/mL
[7] = P. aeruginosa, 10 h cultivation at 37° C., 5×10^5 CFU/mL
[8] = S. marcescens, 10 h cultivation at 37° C., 5×10^5 CFU/mL
[9] = E. cloacae, 10 h cultivation at 37° C., 5×10^5 CFU/mL
[10] = P. vulgaris, 10 h cultivation at 37° C., 5×10^5 CFU/mL
[11] = Klebsiella pneumonia, 96-well plate, 5×10^5 CFU/mL, 37° C., 10 h
[12] = Aeromonas hydrophila, 96-well plate, 5×10^5 CFU/mL, 37° C., 10 h
[13] = E. coli BL21, 96-well plate, 5×10^5 CFU/mL, 37° C., 10 h
[14] = Citrobacter diversus, 96-well plate, 5×10^5 CFU/mL, 37° C., 10 h
[15] = Moraxella catarrhalis, 96-well plate, 5×10^5 CFU/mL, 37° C., 10 h
[16] = Proteus mirabilis, 96-well plate, 5×10^5 CFU/mL, 37° C., 10 h
[17] = Pseudomonas aeruginosa, 96-well plate, 5×10^5 CFU/mL, 37° C., 10 h
[18] = Serratia marcescens, 96-well plate, 5×10^5 CFU/mL, 37° C., 10 h
[19] = Enterobacter cloacae, 96-well plate, 5×10^5 CFU/mL, 37° C., 10 h
[20] = Proteus vulgaris, 96-well plate, 5×10^5 CFU/mL, 37° C., 10 h
[21] = 96-well plate, 5×10^5 CFU/mL, 37° C., 10 h

PRT792 (YGVLCAETCQCVNGGKCYHVSGACLCEAGFAGERCE; listed as Homo sapiens)
MIC (μg/mL) K. pneumonia (Klebsiella pneumonia; [1]): 12.5 µg/mL
MIC (E. coli DH5α): 12.5 µg/mL
MIC (μg/mL) A. hydrophila (Aeromonas hydrophila; [2]): 50 µg/mL
MIC (μg/mL) E. coli BL21 (E. coli BL21; [3]): 50 µg/mL
MIC (μg/mL) C. diversus (Citrobacter diversus; [4]): 25 µg/mL
MIC (μg/mL) M. catarrhalis (Moraxella catarrhalis; [5]): 12.5 µg/mL
MIC (μg/mL) P. mirabilis (Proteus mirabilis; [6]): 50 µg/mL
MIC (μg/mL) P. aeruginosa (Pseudomonas aeruginosa; [7]): 12.5 µg/mL
MIC (μg/mL) S. marcescens (Serratia marcescens; [8]): 50 µg/mL
MIC (μg/mL) E. cloacae (Enterobacter cloacae; [9]): 25 µg/mL
MIC (μg/mL) P. vulgaris (Proteus vulgaris; [10]): 12.5 µg/mL

PRT18 (CQCNPHGSYGGTCDPATGQCSCRPGVGGLRCDRCEPGFWNFRGIVTDGRSGCTP; listed as Homo sapiens)
MIC (μg/mL) K. pneumonia (Klebsiella pneumonia; [11]): 100 µg/mL
MIC (E. coli DH5α): 12.5 µg/mL
MIC (μg/mL) A. hydrophila (Aeromonas hydrophila; [12]): 25 µg/mL
MIC (μg/mL) E. coli BL21 (E. coli BL21; [13]): 50 µg/mL
MIC (μg/mL) C. diversus (Citrobacter diversus; [14]): 12.5 µg/mL
MIC (μg/mL) M. catarrhalis (Moraxella catarrhalis; [15]): 12.5 µg/mL
MIC (μg/mL) P. mirabilis (Proteus mirabilis; [16]): 25 µg/mL
MIC (μg/mL) P. aeruginosa (Pseudomonas aeruginosa; [17]): 25 µg/mL
MIC (μg/mL) S. marcescens (Serratia marcescens; [18]): 12.5 µg/mL
MIC (μg/mL) E. cloacae (Enterobacter cloacae; [19]): 50 µg/mL
MIC (μg/mL) P. vulgaris (Proteus vulgaris; [20]): 12.5 µg/mL

PRT471 (VCEPGCGAHGTCHEPNKCQCQEGWHGRHCN; listed as Homo sapiens)
MIC against K. pneumonia (Klebsiella pneumonia; [21]): 12.5 µg/mL
MIC (E. coli DH5α): 100 µg/mL
MIC against A. hydrophila (Aeromonas hydrophila; [21]): 12.5 µg/mL
MIC against E. coli BL21 (E. coli BL21; [21]): 12.5 µg/mL
MIC against C. diversus (Citrobacter diversus; [21]): 12.5 µg/mL
MIC against M. catarrhalis (Moraxella catarrhalis; [21]): 12.5 µg/mL
MIC against P. mirabilis (Proteus mirabilis; [21]): 12.5 µg/mL
MIC against P. aeruginosa (Pseudomonas aeruginosa; [21]): 12.5 µg/mL
MIC against S. marcescens (Serratia marcescens; [21]): 12.5 µg/mL
MIC against E. cloacae (Enterobacter cloacae; [21]): 12.5 µg/mL
MIC against P. vulgaris (Proteus vulgaris; [21]): 25 µg/mL

PRT80 (TNVCDLNPCEHQSVCTRKPSAPHGYTCECPPNYLGPYCE; listed as Homo sapiens)
MIC (μg/mL) K. pneumonia (Klebsiella pneumonia; [11]): 25 µg/mL
MIC (E. coli DH5α): 12.5 µg/mL
MIC (μg/mL) A. hydrophila (Aeromonas hydrophila; [12]): 25 µg/mL
MIC (μg/mL) E. coli BL21 (E. coli BL21; [13]): 50 µg/mL
MIC (μg/mL) C. diversus (Citrobacter diversus; [14]): 12.5 µg/mL
MIC (μg/mL) M. catarrhalis (Moraxella catarrhalis; [15]): 25 µg/mL
MIC (μg/mL) P. mirabilis (Proteus mirabilis; [16]): 12.5 µg/mL
MIC (μg/mL) P. aeruginosa (Pseudomonas aeruginosa; [17]): 12.5 µg/mL
MIC (μg/mL) S. marcescens (Serratia marcescens; [18]): 12.5 µg/mL
MIC (μg/mL) E. cloacae (Enterobacter cloacae; [19]): 12.5 µg/mL
MIC (μg/mL) P. vulgaris (Proteus vulgaris; [20]): 12.5 µg/mL

PRT190 (ECPLNYCRNGGTCVVEKNGPMCRCRQGWKGNRC; listed as Homo sapiens)
MIC (μg/mL) K. pneumonia (Klebsiella pneumonia; [1]): 25 µg/mL
MIC (E. coli DH5α): 12.5 µg/mL
MIC (μg/mL) A. hydrophila (Aeromonas hydrophila; [2]): 25 µg/mL
MIC (μg/mL) E. coli BL21 (E. coli BL21; [3]): 25 µg/mL
MIC (μg/mL) C. diversus (Citrobacter diversus; [4]): 12.5 µg/mL
MIC (μg/mL) M. catarrhalis (Moraxella catarrhalis; [5]): 12.5 µg/mL
MIC (μg/mL) P. mirabilis (Proteus mirabilis; [6]): 12.5 µg/mL
MIC (μg/mL) P. aeruginosa (Pseudomonas aeruginosa; [7]): 50 µg/mL
MIC (μg/mL) S. marcescens (Serratia marcescens; [8]): 12.5 µg/mL
MIC (μg/mL) E. cloacae (Enterobacter cloacae; [9]): 12.5 µg/mL
MIC (μg/mL) P. vulgaris (Proteus vulgaris; [10]): 12.5 µg/mL

PRT66 (DDNICLREPCENYMKCVSVLRFDSSAPFLSSTTVLFRPIHPINGLRCRCPPGFTGDYCE; listed as Homo sapiens)
MIC (μg/mL) K. pneumonia (Klebsiella pneumonia; [11]): 12.5 µg/mL
MIC (E. coli DH5α): 12.5 µg/mL
MIC (μg/mL) A. hydrophila (Aeromonas hydrophila; [12]): 12.5 µg/mL
MIC (μg/mL) E. coli BL21 (E. coli BL21; [13]): 12.5 µg/mL
MIC (μg/mL) C. diversus (Citrobacter diversus; [14]): 25 µg/mL
MIC (μg/mL) M. catarrhalis (Moraxella catarrhalis; [15]): 12.5 µg/mL
MIC (μg/mL) P. mirabilis (Proteus mirabilis; [16]): 25 µg/mL
MIC (μg/mL) P. aeruginosa (Pseudomonas aeruginosa; [17]): 12.5 µg/mL
MIC (μg/mL) S. marcescens (Serratia marcescens; [18]): 25 µg/mL
MIC (μg/mL) E. cloacae (Enterobacter cloacae; [19]): 12.5 µg/mL
MIC (μg/mL) P. vulgaris (Proteus vulgaris; [20]): 12.5 µg/mL

PRT913 (VINGCKGKPCKNGGTCAVASNTARGFICKCPAGFEGATCE; listed as Homo sapiens)
MIC (Klebsiella pneumonia; K. pneumonia, 10 h cultivation at 37° C.): 25 µg/mL
MIC (E. coli DH5α): 12.5 µg/mL
MIC (Aeromonas hydrophila; A. hydrophila, 10 h cultivation at 37° C.): 25 µg/mL
MIC (E. coli BL21; E. coli BL21, 10 h cultivation at 37° C.): 25 µg/mL
MIC (Citrobacter diversus; C. diversus, 10 h cultivation at 37° C.): 25 µg/mL
MIC (Moraxella catarrhalis; M. catarrhalis, 10 h cultivation at 37° C.): 50 µg/mL
MIC (Proteus mirabilis; P. mirabilis, 10 h cultivation at 37° C.): 25 µg/mL
MIC (Pseudomonas aeruginosa; P. aeruginosa, 10 h cultivation at 37° C.): 50 µg/mL
MIC (Serratia marcescens; S. marcescens, 10 h cultivation at 37° C.): 50 µg/mL
MIC (Enterobacter cloacae; E. cloacae, 10 h cultivation at 37° C.): 12.5 µg/mL
MIC (Proteus vulgaris; P. vulgaris, 10 h cultivation at 37° C.): 12.5 µg/mL
